Results: US8211929B2, “Pyrimidine derivatives as kinase modulators and method of use” (Exelixis, Inc., priority 2004, dated 2012)
Where two headings read alike, the source gives them in different places.

Experiments:
IGF 3P = biological target: T1, IGF 3P (Homo sapiens, UniProt P08069); experiment: IGF1R kinase assay (LCCA), IGF 3P; type: biochemical
T1 construct: human IGF1R kinase domain residues M954-C1367; made in house; host or cells: baculovirus expression (insect cells)
In short: (§1)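 Read-out is percent ATP remaining, detected by luciferase-luciferin luminescence after a 2 h ambient reaction. Reaction contained 4 nM IGF1R kinase domain (residues M954-C1367, baculovirus-made), 3 μM ATP (near KM), 4 μM poly EY, pH 7.5 with Mg2+/Mn2+. Ten inhibitor concentrations; IC50 by Hill-type curve fit.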

[1] = biological target: T2, (Homo sapiens, UniProt P08069); experiment: IGF1R kinase assay (LCCA), IGF 0P; type: biochemical
T2 construct: human IGF1R kinase domain residues M954-C1367; made in house; host or cells: baculovirus expression (insect cells)
T2 sequence (P08069 954-1367): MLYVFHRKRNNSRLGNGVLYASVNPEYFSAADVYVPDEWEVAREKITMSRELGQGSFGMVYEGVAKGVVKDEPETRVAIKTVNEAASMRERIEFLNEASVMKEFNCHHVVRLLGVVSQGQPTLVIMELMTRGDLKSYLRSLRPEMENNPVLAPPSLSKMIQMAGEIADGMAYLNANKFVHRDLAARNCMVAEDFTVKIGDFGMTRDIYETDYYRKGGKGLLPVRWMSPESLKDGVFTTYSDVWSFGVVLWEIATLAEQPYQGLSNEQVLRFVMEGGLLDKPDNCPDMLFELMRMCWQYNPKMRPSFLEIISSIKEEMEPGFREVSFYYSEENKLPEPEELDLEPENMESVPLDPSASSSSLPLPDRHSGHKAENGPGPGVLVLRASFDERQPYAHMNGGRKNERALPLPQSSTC
In short: as §1

T1 sequence (P08069 954-1367): as above

IC50 (IGF 3P) [nM] | IC50 [1] [nM] | IC50 (IGF 3P; IGF1R kinase LCCA assay) [nM] | IC50 ([1]; IGF1R kinase LCCA assay) [nM] | Structure (SMILES)
< 50 | 50 to 500 |  |  | CC(C)c1cc(Nc2cc(N3CCN(C)CC3)nc(NCc3cc(-c4ccc(F)cc4)no3)n2)[nH]n1 [Example 608, N^2-{[3-(4-fluorophenyl)isoxazol-5-yl]methyl}-N^4-[3-(1-methylethyl)-1H-pyrazol-5-yl]-6-(4-methylpiperazin-1-yl)pyrimidine-2,4-diamine]
 |  | 50 to 500 | 500 to 5000 | CC(C)(C)c1cc(Nc2nc(Nc3ccccc3)ncc2Br)n[nH]1 [Example 116]
 |  | 500 to 5000 | > 5000 | Brc1cnc(N2CCOCC2)nc1Nc1cc(C2CC2)[nH]n1 [Example 200]
 |  | > 5000 | > 5000 | Cc1cc(NCc2ccccc2)nc(NCc2cc(-c3ccccc3)no2)n1 [Example 298]
 |  | 500 to 5000 | 500 to 5000 | Clc1ccccc1Nc1ncc(Br)c(Nc2ccccc2Cl)n1 [Example 222]
500 to 5000 | 500 to 5000 |  |  | Cc1cc(Nc2cc(OCCN(C)C)nc(NCc3cc(C)no3)n2)[nH]n1 [Example 650, 6-{[2-(dimethylamino)ethyl]oxy}-N^2-[(3-methylisoxazol-5-yl)methyl]-N^4-(3-methyl-1H-pyrazol-5-yl)pyrimidine-2,4-diamine]
< 50 | 50 to 500 |  |  | c1cc(-c2cc(CNc3nc(Nc4cc(C5CC5)[nH]n4)cc(N4CCOCC4)n3)on2)ncn1 [Example 637, N^4-(5-cyclopropyl-1H-pyrazol-3-yl)-6-morpholin-4-yl-N^2-[(3-pyrimidin-4-ylisoxazol-5-yl)methyl]pyrimidine-2,4-diamine]
 |  | 500 to 5000 | 500 to 5000 | O=C(Nc1ccc(Cl)c(Nc2ncc(Br)c(Nc3cc(C4CC4)[nH]n3)n2)c1)c1ccccc1 [Example 169]
 |  | 500 to 5000 | 50 to 500 | Nc1cnc(Nc2ccccc2Cl)nc1Nc1cc(C2CC2)n[nH]1 [Example 220]
 |  | 500 to 5000 | 500 to 5000 | Cc1cc(Nc2cc(C3CC3)n[nH]2)nc(Nc2ccc(CCN3CCOCC3)cc2)n1 [Example 556]
 |  | 500 to 5000 | 500 to 5000 | Brc1cnc(NCc2csc(-c3cccs3)n2)nc1Nc1cc(C2CC2)[nH]n1 [Example 218]
 |  | 500 to 5000 | > 5000 | Clc1ccc(CCNc2ncc(Br)c(Nc3cc(C4CC4)n[nH]3)n2)c(Cl)c1 [Example 240]
 |  | > 5000 | > 5000 | Cc1cc(Nc2cc(C)on2)nc(NCc2cc(-c3ccccc3)no2)n1 [Example 307]
 |  | > 5000 | 500 to 5000 | Clc1ccc(-c2cc(CNc3ncc(Br)c(Nc4cc(C5CC5)[nH]n4)n3)on2)cc1 [Example 275]
 |  | 50 to 500 | 50 to 500 | Cc1cc(Nc2cc(C3CC3)[nH]n2)nc(NCc2cc(-c3ccccn3)no2)n1 [Example 498]
 |  | 50 to 500 | 500 to 5000 | Cc1ncc(CNc2ncc(Br)c(Nc3cc(C4CC4)[nH]n3)n2)s1 [Example 135]
 |  | > 5000 | > 5000 | Clc1cc(Nc2ncc(Br)c(Nc3cc(C4CC4)n[nH]3)n2)cc(Cl)c1Cl [Example 325]
< 50 | 50 to 500 |  |  | CC(C)c1cc(CNc2nc(Nc3cc(C4CC4)n[nH]3)cc(N3CCN(CCO)CC3)n2)on1 [Example 663, 2-(4-{6-[(3-cyclopropyl-1H-pyrazol-5-yl)amino]-2-({[3-(1-methylethyl)isoxazol-5-yl]methyl}amino)pyrimidin-4-yl}piperazin-1-yl)ethanol]
< 50 | 50 to 500 |  |  | CCc1cc(CNc2nc(Nc3cc(C4CC4)n[nH]3)cc(N3CCN(C)CC3)n2)on1 [Example 655, N^4-(3-cyclopropyl-1H-pyrazol-5-yl)-N^2-[(3-ethylisoxazol-5-yl)methyl]-6-(4-methylpiperazin-1-yl)pyrimidine-2,4-diamine]
50 to 500 | 50 to 500 |  |  | Clc1c(Nc2cc(C3CC3)n[nH]2)nc(NCc2cc(-c3ccccc3)no2)nc1N1CCOCC1 [Example 624, 5-chloro-N^4-(3-cyclopropyl-1H-pyrazol-5-yl)-6-morpholin-4-yl-N^2-[(3-phenylisoxazol-5-yl)methyl]pyrimidine-2,4-diamine]
 |  | > 5000 | > 5000 | Nc1ncnc2c1c(-c1cccc(OCc3ccccc3)c1)cn2CC1CC2CN(C(=O)OCc3ccccc3)CC2C1 (stereo not drawn) [Example 356]
